Measurements as given in patent US20070292351A1, “Assay for efficacy of histone deacetylase inhibitors” (Methylgene, Inc., priority 2006, published 2007).

Tests used:
[1] = tested on: H4 acetylation in human H460 tumors; experiment: H4Ac immunoblot analysis of H460 tumors in nude mice; assay type: in vivo, nude mice (Balb/c); settings: 100 mg/kg oral, immunoblot normalized to total histones (FIG. 5B)
Method: FIG. 5 Induction of MT3 and p21 in implanted human NSCLC H460 tumors in vivo in nude mice. Nude mice (Balb/c) bearing human H460 tumors were treated with 100 mg/kg MGCD0103 or 0.5% HEC (Vehicle) by oral administration. After 6 h or 24 h, three mice from each group were sacrificed, their tumors harvested and analyzed. Panel A: p21 and MT3 RNA levels quantified by conventional semi-quantitative PCR, normalized to β-actin. Panel B: H4Ac level detected by immunoblot analysis, normalized to total histones.
Human non-small cell lung carcinoma NSCLC-H460 cells (2 million) were injected subcutaneously in the animal flank and allowed to form solid tumors. Tumor fragments were passaged in animals for a minimum of three times before their use. Tumor fragments (about 30 mg) were implanted subcutaneously through a small surgical incision under general anesthesia to Balb/cA female nude mice (6-8 weeks old). Recipient animals were treated with either vehicle (0.1 N HCl) or MGCD0103 (2HBr salt, in 0.1 N HCl) 100 mg/kg orally. Tumors were harvested after one dose of either 6 hour or 24 hours post administration of vehicle or MGCD0103. Each experimental group contained 3 animals. Tumor tissues were deposited in RNAlater (Qiagen, Missisauga Ontario) for total RNA extraction.

[2] = tested on: peripheral white blood cells of patients; experiment: Real time RT-PCR of gene transcription in patients' peripheral white cells in vivo; set-up: species or system human
Method: FIG. 8. Induction of MT3 (A) and AREG (B) transcription in vivo in patients with solid tumor who received treatment with MGCD0103 for one week (three doses per week). At day 8 (72 h after the third dose), peripheral white blood cells were isolated and RNA extracted and analyzed by qRT-PCR
FIG. 12. Induction of transcription of three tumor suppressor genes, BTG1, TNFSF9 and p21 in peripheral white cells from Patient A in vivo as determined by real time RT-PCR. Note that both BTG1 and TNFSF9 were identified in FIG. 11 using microarray expression analysis and their expression is confirmed in vivo by real time RT-PCR.
FIG. 13. Induction of transcription of three tumor suppressor genes, BTG1, TNFSF9 and p21 in peripheral white cells from a MDS patient with clinical response (Patient E) and a MDS patient without response (Patient F) in vivo as determined by real time RT-PCR. Blood samples were drawn 48 hr post the 2nd dose in cycle 1.
Whole blood from either consenting healthy volunteers or consenting patients was centrifuged at 2500 rpm for 10 minutes at ambient temperature in a Sorvall RT-7 centrifuge (Mandel Scientific Co., Guelph, Ontario). Plasma was removed and buffy coat was collected. Five volumes of Erythrocyte Lysis Buffer (EL) (Qiagen Canada Inc., Mississauga, Ontario) were added into buffy coat. Buffy coat was incubated on ice for 20 minutes before it was centrifuged at 400 g for 10 minutes at 4° C. Supernatant was removed and buffy coat was washed twice with EL buffer and re-centrifuged. Buffy coat was resuspended in RPMI media and cells were counted with trypan blue exclusion. To isolate PBMCs, buffy coat cells were centrifuged over Lymphoprep (Axis-Shield, 1114544), and any remaining erythrocytes in the sample were lysed by treatment with EL lysis buffer (Qiagen, 79217). The cell pellets are washed and then re-suspended in RPMI containing 10% FBS.
Quantitative PCR with SYBR Green I detection with Mastercycler® ep realplex (Eppendorf) was performed using LightCycler® 480 SYBR Green I Master (Roche Diagnostics). SYBR Green I assays were performed with 600 nM primers. All other reaction conditions were as described by the manufacturer. Amplification conditions were 5 minutes of initial denaturation at 95° C., followed by 40 cycles of each 15 seconds at 95° C., 15 seconds at 63.4° C., 20 seconds at 68° C., a melting curve from 60° C. to 95° C. was recorded. Quantification was performed using Pfaffl method, a relative quantification method in real-time PCR (Nucleic Acids Research 2001 29:2002-2007). Primers were synthesized by Invitrogen (Invitrogen-Canada, Burlington, Ont.).
Human patients with either solid tumors or leukemia/MDS diseases were enrolled in phase I studies with consensus forms. […]

histone H3 acetylation = experiment: Histone acetylation of nuclear extracts from white blood cells; assay type: in vivo, human; settings: AML Patient A with clinical response (FIG. 9)
Method: Human white peripheral cells were resuspended in 50 ul cold lysis buffer (10 mM Tris-HCl pH8.0, 1.5 mM MgCl2, 5 mM KCl, 0.5% NP-40, 5 mM Na butyrate plus protease inhibitors) and incubated on ice for 10 min. Cells were centrifuged at […] in an IEC Micromax centrifuge (Fisher Scientific Ltd., Nepean, Ontario) at 4° C. for 10-15 min and nuclei collected. Nuclei were washed with 50 ul lysis buffer by centrifugation at 2000 rpm at 4° C. for 10-15 min. Nuclei were resuspended in 35 ul ice cold Nuclear Lysis buffer (50 mM HEPES pH7.5, 500 mM NaCl, 1% NP-40, 1 mM EDTA, 10% glycerol, 5 mM NaButyrate and protease inhibitors) and sonicated 10 seconds using a VirSonic 300 sonicator (VirTis, Gardiner, N.Y.). Lysed nuclei were centrifuged at 15000 rpm at 4° C. for 5 min and supernatant collected for ELISA.
Black plates were coated with 50 ul of diluted anti-Histone antibodies (H11-4, Chemicon, Temecula, Calif.) (1:1000 in TBS) and incubated at ambient temperature for 2 hours. Plates were washed twice with 50 ul of PBS and blocked with 1% BSA+0.1% TritonX-100 in PBS (50 ul) for 45 minutes. […] Fluoroscence development was allowed for 60 minutes in foil and plates were read on a fluorometer (Gemini XS, Molecular Devices, Sunnyvale, Calif.) at Excitation at 550 nm and emission at 610 nm with a cutoff of 590 nm (Auto PMT, 15 reads/well). Data were analyzed using Excel.

## Nc1ccccc1NC(=O)c1ccc(CNc2nccc(-c3cccnc3)n2)cc1 [MGCD0103]
[1]
  H4 acetylation in tumors: detectable only after 6 h of treatment
[2]; MDS patient with clinical response (Patient E), 48 hr post 2nd dose in cycle 1 (FIG. 13)
  Induction of transcription of BTG1, TNFSF9 and p21: Induction
[2]; patients with solid tumors, one week (three doses per week), day 8, qRT-PCR (FIG. 8A)
  induction of MT3 transcription in vivo: induction
[2]; patients with solid tumors, one week (three doses per week), day 8, qRT-PCR (FIG. 8B)
  induction of AREG transcription in vivo: induction
[2]; peripheral white cells, AML Patient A, real time RT-PCR (FIG. 12)
  Induction of transcription of BTG1, TNFSF9 and p21: Induction
Histone H3 acetylation
  induction of histone H3 acetylation in peripheral white cells: induction
